In PMC5218480 (PLoS ONE, 2017):

Test system: MV-4-11 cells
Assay: Gene expression microarray analysis (Affymetrix PrimeView) and GSEA
Type: cell-based, human
Set-up: RFU PODN (11730768_x_at) / Fold change /veh PODN (11730768_x_at) / RFU LINC00158 (11744669_a_at) / Fold change /veh LINC00158 (11744669_a_at) / RFU DUSP10 (11751237_a_at) / Fold change /veh DUSP10 (11751237_a_at) / RFU ID3 (11757404_x_at) / Fold change /veh ID3 (11757404_x_at) / RFU PLEKHG5 (11737974_s_at) / Fold change /veh PLEKHG5 (11737974_s_at) / RFU LRRC4B (11730491_at) / Fold change /veh LRRC4B (11730491_at) / RFU GIMAP4 (11747438_a_at) / Fold change /veh GIMAP4 (11747438_a_at) / RFU KRT8 (11758183_x_at) / Fold change /veh KRT8 (11758183_x_at) / RFU CNN1 (11734310_a_at) / Fold change /veh CNN1 (11734310_a_at) / RFU VPS37D (11726825_at) / Fold change /veh VPS37D (11726825_at) / RFU C10orf10 (11716522_x_at) / Fold change /veh C10orf10 (11716522_x_at) / RFU KIR2DL2 /// KIR2DL4 /// KIR2DL5A /// KIR2DL5B /// KIR2DS1 /// KIR2DS2 /// KIR2DS3 /// KIR2DS4 /// KIR3DL3 /// KIR3DL3 /// KIR3DS1 (11738374_at) / Fold change /veh KIR2DL2 /// KIR2DL4 /// KIR2DL5A /// KIR2DL5B /// KIR2DS1 /// KIR2DS2 /// KIR2DS3 /// KIR2DS4 /// KIR3DL3 /// KIR3DL3 /// KIR3DS1 (11738374_at) / RFU C1QL1 (11718748_at) / Fold change /veh C1QL1 (11718748_at) / RFU TMPRSS4 (11747572_a_at) / Fold change /veh TMPRSS4 (11747572_a_at) / RFU HAMP (11756126_x_at) / Fold change /veh HAMP (11756126_x_at) / RFU RNFT2 (11725882_a_at) / Fold change /veh RNFT2 (11725882_a_at) / RFU NR4A2 (11747474_a_at) / Fold change /veh NR4A2 (11747474_a_at) / RFU ABCC12 (11746883_a_at) / Fold change /veh ABCC12 (11746883_a_at) / RFU TMEM136 (11760407_x_at) / Fold change /veh TMEM136 (11760407_x_at) / RFU CLDN22 /// WWC2 (11732394_at) / Fold change /veh CLDN22 /// WWC2 (11732394_at) / RFU HLA-DPB1 (11760878_x_at) / Fold change /veh HLA-DPB1 (11760878_x_at) / RFU SPINT1 (11716480_a_at) / Fold change /veh SPINT1 (11716480_a_at) / RFU GAP43 (11754022_s_at) / Fold change /veh GAP43 (11754022_s_at) / RFU A4GNT (11735810_at) / Fold change /veh A4GNT (11735810_at) / RFU PRB3 (11715151_x_at) / Fold change /veh PRB3 (11715151_x_at) / RFU TUBB4B (11761932_at) / Fold change /veh TUBB4B (11761932_at) / RFU CAPN14 (11732068_a_at) / Fold change /veh CAPN14 (11732068_a_at) / RFU TMCC2 (11721928_a_at) / Fold change /veh TMCC2 (11721928_a_at) / RFU IRGQ (11745062_a_at) / Fold change /veh IRGQ (11745062_a_at) / RFU FAM174B (11720279_a_at) / Fold change /veh FAM174B (11720279_a_at) / RFU TMPRSS4 (11748680_a_at) / Fold change /veh TMPRSS4 (11748680_a_at) / RFU FAM212B (11763350_a_at) / Fold change /veh FAM212B (11763350_a_at) / RFU PLEKHG5 (11743358_a_at) / Fold change /veh PLEKHG5 (11743358_a_at) / RFU ZSCAN30 (11745921_a_at) / Fold change /veh ZSCAN30 (11745921_a_at) / RFU CMKLR1 (11741424_a_at) / Fold change /veh CMKLR1 (11741424_a_at) / RFU LOC101060620 /// MAPK8IP1 (11723275_at) / Fold change /veh LOC101060620 /// MAPK8IP1 (11723275_at) / RFU SPTSSB (11747773_x_at) / Fold change /veh SPTSSB (11747773_x_at) / RFU PRSS12 (11739890_at) / Fold change /veh PRSS12 (11739890_at) / RFU BIN1 (11741810_x_at) / Fold change /veh BIN1 (11741810_x_at) / RFU WNT11 (11732464_a_at) / Fold change /veh WNT11 (11732464_a_at) / RFU C10orf10 (11716521_a_at) / Fold change /veh C10orf10 (11716521_a_at) / RFU C5orf56 (11738089_at) / Fold change /veh C5orf56 (11738089_at) / RFU CYB561 (11721691_x_at) / Fold change /veh CYB561 (11721691_x_at) / RFU ANKRD19P (11752326_a_at) / Fold change /veh ANKRD19P (11752326_a_at) / RFU OR2T12 /// OR2T33 /// OR2T8 (11738714_s_at) / Fold change /veh OR2T12 /// OR2T33 /// OR2T8 (11738714_s_at) / RFU VCAN (11748164_a_at) / Fold change /veh VCAN (11748164_a_at) / RFU JSRP1 (11732532_at) / Fold change /veh JSRP1 (11732532_at) / RFU KRTAP10-11 (11738290_x_at) / Fold change /veh KRTAP10-11 (11738290_x_at) / RFU MYO3A (11730013_a_at) / Fold change /veh MYO3A (11730013_a_at) / RFU EBF3 (11725865_a_at) / Fold change /veh EBF3 (11725865_a_at) / RFU CAMK2N1 (11719241_x_at) / Fold change /veh CAMK2N1 (11719241_x_at) / RFU C5orf56 (11738088_a_at) / Fold change /veh C5orf56 (11738088_a_at) / RFU OLFML3 (11715873_a_at) / Fold change /veh OLFML3 (11715873_a_at) / RFU LOC100653217 /// NTM (11731650_a_at) / Fold change /veh LOC100653217 /// NTM (11731650_a_at) / RFU MAPK11 (11762145_a_at) / Fold change /veh MAPK11 (11762145_a_at) / RFU FIZ1 (11724087_x_at) / Fold change /veh FIZ1 (11724087_x_at) / RFU OASL (11726364_x_at) / Fold change /veh OASL (11726364_x_at) / RFU SOX15 (11748057_x_at) / Fold change /veh SOX15 (11748057_x_at) / RFU CD79A (11719716_a_at) / Fold change /veh CD79A (11719716_a_at) / RFU HIST1H1D (11736915_at) / Fold change /veh HIST1H1D (11736915_at) / RFU CASKIN2 (11723855_a_at) / Fold change /veh CASKIN2 (11723855_a_at) / RFU LOC730098 (11760151_x_at) / Fold change /veh LOC730098 (11760151_x_at) / RFU OR4N2 (11742367_at) / Fold change /veh OR4N2 (11742367_at) / RFU PRRT2 (11749266_a_at) / Fold change /veh PRRT2 (11749266_a_at) / RFU SNX32 (11753110_a_at) / Fold change /veh SNX32 (11753110_a_at) / RFU CDHR5 (11726645_a_at) / Fold change /veh CDHR5 (11726645_a_at) / RFU RCAN1 (11760418_a_at) / Fold change /veh RCAN1 (11760418_a_at) / RFU FAM167A (11723789_a_at) / Fold change /veh FAM167A (11723789_a_at) / RFU FAM26E (11764081_at) / Fold change /veh FAM26E (11764081_at) / RFU ISYNA1 (11749810_s_at) / Fold change /veh ISYNA1 (11749810_s_at) / RFU ACY1 (11761880_at) / Fold change /veh ACY1 (11761880_at) / RFU 11764098_at / Fold change /veh 11764098_at / RFU SAMD14 (11745864_x_at) / Fold change /veh SAMD14 (11745864_x_at) / RFU NPB (11741838_a_at) / Fold change /veh NPB (11741838_a_at) / RFU TMPRSS6 (11731388_a_at) / Fold change /veh TMPRSS6 (11731388_a_at) / RFU KRTAP10-2 (11738614_at) / Fold change /veh KRTAP10-2 (11738614_at) / RFU ARHGAP8 /// PRR5-ARHGAP8 (11727945_x_at) / Fold change /veh ARHGAP8 /// PRR5-ARHGAP8 (11727945_x_at) / RFU KRTAP5-7 /// NADSYN1 (11734609_at) / Fold change /veh KRTAP5-7 /// NADSYN1 (11734609_at) / RFU RASL12 (11751679_a_at) / Fold change /veh RASL12 (11751679_a_at) / RFU CDKN2B (11736163_a_at) / Fold change /veh CDKN2B (11736163_a_at) / RFU PRF1 (11729649_at) / Fold change /veh PRF1 (11729649_at) / RFU, ZNF638 /// ZNF638-IT1 / Fold change vs veh, ZNF638 /// ZNF638-IT1 / RFU, PANK3 / Fold change vs veh, PANK3 / RFU, SH3YL1 / Fold change vs veh, SH3YL1 / RFU, ZEB2 / Fold change vs veh, ZEB2 / RFU, NRIP1 / Fold change vs veh, NRIP1 / RFU, PTTG1IP / Fold change vs veh, PTTG1IP / RFU, CAPN2 / Fold change vs veh, CAPN2 / RFU, MED14 / Fold change vs veh, MED14 / RFU, SNORA58 / Fold change vs veh, SNORA58 / RFU, C1orf63 / Fold change vs veh, C1orf63 / RFU, LRRFIP1 / Fold change vs veh, LRRFIP1 / RFU, NDUFAF7 / Fold change vs veh, NDUFAF7 / RFU, SLC12A2 / Fold change vs veh, SLC12A2 / RFU, IBTK / Fold change vs veh, IBTK / RFU, ESF1 / Fold change vs veh, ESF1 / Fold change vs veh, TMEM50B / RFU, TAOK1 / Fold change vs veh, TAOK1 / RFU, ACBD3 / Fold change vs veh, ACBD3 / RFU, TMA16 / Fold change vs veh, TMA16 / RFU, RWDD3 / Fold change vs veh, RWDD3 / RFU, BCAT1 / Fold change vs veh, BCAT1 / RFU, EDEM3 / Fold change vs veh, EDEM3 / RFU, TMEM33 / Fold change vs veh, TMEM33 / RFU, WDR75 / Fold change vs veh, WDR75 / RFU, AHCTF1 / Fold change vs veh, AHCTF1 / RFU, TFRC / Fold change vs veh, TFRC / RFU, ZDHHC17 / Fold change vs veh, ZDHHC17 / RFU, NOM1 / Fold change vs veh, NOM1 / RFU, ARL8B / Fold change vs veh, ARL8B / RFU, ZBTB11 / Fold change vs veh, ZBTB11 / RFU, TAMM41 / Fold change vs veh, TAMM41 / RFU, KIAA1704 /// LOC100996395 / Fold change vs veh, KIAA1704 /// LOC100996395 / RFU, ING1 / Fold change vs veh, ING1 / RFU, TRMT61B / Fold change vs veh, TRMT61B / RFU, FUBP3 / Fold change vs veh, FUBP3 / RFU, TP53 / Fold change vs veh, TP53 / RFU, TNKS2 / Fold change vs veh, TNKS2 / RFU, ZFP14 / Fold change vs veh, ZFP14 / RFU, ACTR2 / Fold change vs veh, ACTR2 / RFU, PPP3R1 / Fold change vs veh, PPP3R1 / RFU, PIK3R1 / Fold change vs veh, PIK3R1 / RFU, HNRNPA1 / Fold change vs veh, HNRNPA1 / RFU, RNF170 / Fold change vs veh, RNF170 / RFU, ZNF28 / Fold change vs veh, ZNF28 / RFU, RNGTT / Fold change vs veh, RNGTT / RFU, OGT / Fold change vs veh, OGT / RFU, BRD1 / Fold change vs veh, BRD1 / RFU, MARS / Fold change vs veh, MARS / RFU, ZNF655 / Fold change vs veh, ZNF655 / RFU, FAHD1 / Fold change vs veh, FAHD1 / RFU, BDP1 / Fold change vs veh, BDP1 / RFU, LRRCC1 / Fold change vs veh, LRRCC1 / RFU, ARID1A / Fold change vs veh, ARID1A / RFU, ZNF146 / Fold change vs veh, ZNF146 / RFU, ZNF330 / Fold change vs veh, ZNF330 / RFU, GPN3 / Fold change vs veh, GPN3 / RFU, C9orf123 / Fold change vs veh, C9orf123 / RFU, N4BP2L2 / Fold change vs veh, N4BP2L2 / RFU, ARFIP1 / Fold change vs veh, ARFIP1 / RFU, FAM179B / Fold change vs veh, FAM179B / RFU, BCL10 / Fold change vs veh, BCL10 / RFU, UHRF1BP1L / Fold change vs veh, UHRF1BP1L / RFU, BET1 / Fold change vs veh, BET1 / RFU, CNOT2 / Fold change vs veh, CNOT2 / RFU, ZNF268 / Fold change vs veh, ZNF268 / Fold change vs veh, ZNF507 / RFU, DGCR2 / Fold change vs veh, DGCR2 / RFU, WDSUB1 / Fold change vs veh, WDSUB1 / Fold change vs veh, HSP90B1 /// MIR3652 / RFU, ADSS / Fold change vs veh, ADSS / RFU, GK / Fold change vs veh, GK / RFU, ZNF148 / Fold change vs veh, ZNF148 / RFU, TAF9 / Fold change vs veh, TAF9 / RFU, SLC1A5 / Fold change vs veh, SLC1A5 / RFU, SLMO2 / Fold change vs veh, SLMO2 / RFU, ABCC4 / Fold change vs veh, ABCC4 / RFU, LOC101060439 /// RAP1B / Fold change vs veh, LOC101060439 /// RAP1B / RFU, RFX7 / Fold change vs veh, RFX7 / RFU, GTPBP10 / Fold change vs veh, GTPBP10 / RFU, CNEP1R1 / Fold change vs veh, CNEP1R1 / RFU, BIVM-ERCC5 /// ERCC5 / Fold change vs veh, BIVM-ERCC5 /// ERCC5 / RFU, ILF3 / Fold change vs veh, ILF3 / RFU 11762660_at / Fold change /veh 11762660_at / RFU VCAN (11757783_s_at) / Fold change /veh VCAN (11757783_s_at) / RFU DDX43 (11728927_at) / Fold change /veh DDX43 (11728927_at) / RFU KRT8 (11758188_x_at) / Fold change /veh KRT8 (11758188_x_at) / RFU NKD1 (11759106_at) / Fold change /veh NKD1 (11759106_at) / RFU SRD5A1 (11742802_a_at) / Fold change /veh SRD5A1 (11742802_a_at) / RFU TPSAB1 /// TPSB2 (11721975_s_at) / Fold change /veh TPSAB1 /// TPSB2 (11721975_s_at) / RFU GSTM3 (11746129_a_at) / Fold change /veh GSTM3 (11746129_a_at) / RFU IL23R (11737362_x_at) / Fold change /veh IL23R (11737362_x_at) / RFU TMEM51 (11727254_a_at) / Fold change /veh TMEM51 (11727254_a_at) / RFU PIWIL2 (11732686_x_at) / Fold change /veh PIWIL2 (11732686_x_at) / RFU ORM1 (11744905_x_at) / Fold change /veh ORM1 (11744905_x_at) / RFU CCDC152 (11743942_at) / Fold change /veh CCDC152 (11743942_at) / RFU ECM1 (11717891_a_at) / Fold change /veh ECM1 (11717891_a_at) / RFU IL23R (11748794_a_at) / Fold change /veh IL23R (11748794_a_at) / RFU TNFAIP8L3 (11732012_x_at) / Fold change /veh TNFAIP8L3 (11732012_x_at) / RFU MBOAT4 (11741988_at) / Fold change /veh MBOAT4 (11741988_at) / RFU 11764193_at / Fold change /veh 11764193_at / RFU TMEM53 (11763286_at) / Fold change /veh TMEM53 (11763286_at) / RFU MAGEB2 (11727129_at) / Fold change /veh MAGEB2 (11727129_at) / RFU TMEM200A (11744735_a_at) / Fold change /veh TMEM200A (11744735_a_at) / RFU CCDC152 (11751479_a_at) / Fold change /veh CCDC152 (11751479_a_at) / RFU FAM211A (11726209_a_at) / Fold change /veh FAM211A (11726209_a_at) / RFU RGS16 (11746705_a_at) / Fold change /veh RGS16 (11746705_a_at) / RFU VCAN (11755009_s_at) / Fold change /veh VCAN (11755009_s_at) / RFU RHOB (11743442_s_at) / Fold change /veh RHOB (11743442_s_at) / RFU RGS16 (11720943_a_at) / Fold change /veh RGS16 (11720943_a_at) / RFU RGS16 (11720944_at) / Fold change /veh RGS16 (11720944_at) / RFU, VPS4B / Fold change vs veh, VPS4B / RFU, CREB1 / Fold change vs veh, CREB1 / RFU, DNAJC13 / Fold change vs veh, DNAJC13 / RFU, GNAQ / Fold change vs veh, GNAQ / RFU, CDK5R1 / Fold change vs veh, CDK5R1 / RFU, ZRANB3 / Fold change vs veh, ZRANB3 / RFU, CUL4A / Fold change vs veh, CUL4A / RFU, CCNY / Fold change vs veh, CCNY / RFU, UFL1 / Fold change vs veh, UFL1 / RFU, COG3 / Fold change vs veh, COG3 / RFU, DIAPH2 / Fold change vs veh, DIAPH2 / RFU, SKA2 / Fold change vs veh, SKA2 / RFU, AFF3 / Fold change vs veh, AFF3 / RFU, LMF1 / Fold change vs veh, LMF1 / RFU, IPO11 / Fold change vs veh, IPO11 / RFU, DFFB / Fold change vs veh, DFFB / RFU, FOXP1 / Fold change vs veh, FOXP1 / RFU, CARD8 / Fold change vs veh, CARD8 / RFU, STRN3 / Fold change vs veh, STRN3 / RFU, ADK / Fold change vs veh, ADK / RFU, RASSF2 / Fold change vs veh, RASSF2 / RFU, WIPF1 / Fold change vs veh, WIPF1 / RFU, LARP1B / Fold change vs veh, LARP1B / RFU, RASA1 / Fold change vs veh, RASA1 / RFU, RB1 / Fold change vs veh, RB1 / RFU, PPFIA1 / Fold change vs veh, PPFIA1 / RFU, MAT2A / Fold change vs veh, MAT2A / RFU, CCT5 / Fold change vs veh, CCT5 / RFU, WDR92 / Fold change vs veh, WDR92 / RFU, CUX1 / Fold change vs veh, CUX1 / RFU, TTC7A / Fold change vs veh, TTC7A / RFU, TMEM135 / Fold change vs veh, TMEM135 / RFU, DEPTOR / Fold change vs veh, DEPTOR / RFU, CPM / Fold change vs veh, CPM / RFU, DNAJB6 / Fold change vs veh, DNAJB6 / RFU, CACNA2D3 / Fold change vs veh, CACNA2D3 / RFU, DTX4 / Fold change vs veh, DTX4 / RFU, TFCP2 / Fold change vs veh, TFCP2 / RFU, GMCL1 /// GMCL1P1 / Fold change vs veh, GMCL1 /// GMCL1P1 / RFU, AEBP2 / Fold change vs veh, AEBP2 / RFU, SNHG1 /// SNORD22 /// SNORD25 /// SNORD26 /// SNORD27 /// SNORD28 /// SNORD29 /// SNORD31 / Fold change vs veh, SNHG1 /// SNORD22 /// SNORD25 /// SNORD26 /// SNORD27 /// SNORD28 /// SNORD29 /// SNORD31 / Fold change (Aza/veh), C12orf56 (ProbeSet 11735607_a_at) / Fold change (ACY-1035/veh), C12orf56 (ProbeSet 11735607_a_at) / Fold change (Aza/veh), FGFR1OP (ProbeSet 11751329_s_at) / Fold change (ACY-1035/veh), FGFR1OP (ProbeSet 11751329_s_at) / Fold change (Aza/veh), VPS36 (ProbeSet 11739960_a_at) / Fold change (ACY-1035/veh), VPS36 (ProbeSet 11739960_a_at) / RFU SYPL1 (11715823_x_at) / Fold change /veh SYPL1 (11715823_x_at) / RFU IGFBP7 (11715501_s_at) / Fold change /veh IGFBP7 (11715501_s_at) / RFU REEP3 (11722064_at) / Fold change /veh REEP3 (11722064_at) / RFU IGLL1 (11728026_x_at) / Fold change /veh IGLL1 (11728026_x_at): dose or concentration left out as unconfirmed
Settings: ProbeSet 11739106_a_at; LIST B

With Nc1ncn([C@@H]2O[C@H](CO)[C@@H](O)[C@H]2O)c(=O)n1 [azacitidine] as the compound, how does the “RFU, TMEM33” value read?
The value was 268.42 RFU.
